# Results reported in patent US8404684B2, “Inhibitors of phosphatidylinositol 3-kinase” (Novartis AG, priority 2003, dated 2013).
# Target: T1, recombinant GST-p110γ (human PI3Kγ, residues 38-1102) (Homo sapiens, UniProt P48736)
# T1 construct: Residues 38-1102 of human PI3Kγ are subcloned into the BamH1 and EcoR1 sites; made in house; host or cells: Sf9 (Spodoptera frugiperda) insect cells, baculovirus
# Test: PI3Kγ in vitro kinase assay (Scintillation Proximity Assay), transfer of terminal phosphate of ATP to phosphatidylinositol
# Format: biochemical
# Conditions: 12.5 μM ATP, 15 μg/ml phosphatidylinositol, 60 minutes at room temperature
# Text: Baculovirus expressing different fragments of PI3Kγ fused to GST have been previously described by Stoyanova, S., Bulgarelli-Leva, G., Kirsch, C., Hanck, T., Klinger, R., Wetzker, R., Wymann, M. P. (1997) Lipid- and protein kinase activities of G protein-coupled PI 3-kinase g: structure-activity analysis and interactions with wortmannin. Biochem. J., 324:489. Residues 38-1102 of human PI3Kγ are subcloned into the BamH1 and EcoR1 sites of the transfer vector pAcG2T (Pharmingen) to create a GST-PI3Kγ lacking the first 37 residues of PI3Kγ. To express the recombinant protein, Sf9 (Spodoptera frugiperda 9) insect cells are routinely maintained at densities between 3×10^5 and 3×10^6 cells/ml in serum containing TNMFH medium (Sigma). Sf9 cells, at a density of 2×10^6 are infected with human GST-PI3KγΔ34 baculovirus at a multiplicity of infection (m.o.i.) of 1 for 72 hours. The infected cells are harvested by centrifugation at 1400 g for 4 minutes at 4° C. and the cell pellets are frozen at −80° C. Both Sf9 and Sf21 cells work equally well. Sf9 cells (1×10^9) are resuspended in 100 ml cold (4° C.) lysis buffer (50 mM Tris-HCl pH 7.5, 1% Triton X-100, 150 mM NaCl, 1 mM NaF, 2 mM DTT and protease inhibitors. Cells are incubated on ice for 30 minutes then centrifuged at 15000 g for 20 minutes at 4° C. Purification of the supernatant sample is carried out at 4° C. by affinity chromatography using SEPHAROSE™ agarose gel beads coupled to glutathione (from Amersham Pharmacia Biotech). A cell lysate/GST resin ratio of 50:1 is used. The GST resin is firstly pre-rinsed to remove ethanol preservative and then equilibrated with lysis buffer. Cell lysate (supernatant) is added (usually as 50 ml lysate to 1 ml GST resin in 50 ml tubes) and gently rotated on a mixer at 4° C. for 2-3 hours. The unbound flow through sample is collected by centrifugation at 1000 g for 5 minutes at 4° C. using a DENLEY™ centrifuge. The 1 ml GST resin containing bound material is transferred to a 15 ml FALCON™ centrifuge tube for subsequent washing and elution steps. Firstly a series of 3 cycles of washings (mixing by gentle inversion) is performed with 15 ml ice cold wash Buffer A (50 mM Tris-HCl pH 7.5, 1% Triton X-100, 2 mM DTT) interspersed with centrifugation at 1000 g for 5 minutes at 4° C. A final single wash step is performed with 15 ml ice cold wash Buffer B (50 mM Tris-HCl pH 7.5, 2 mM DTT) and then centrifuged at 1000 g for 5 minutes at 4° C. The washed GST resin is finally eluted with 4 cycles of 1 ml ice cold elution buffer (50 mM Tris-HCl pH 7.5, 10 mM reduced glutathione, 2 mM DTT, 150 mM NaCl, 1 mM NaF, 50% ethylene glycol and protease inhibitors) interspersed with centrifugation at 1000 g for 5 minutes at 4° C. Samples are aliquoted and stored at −20° C.
# An in vitro kinase assay is established that measures the transfer of the terminal phosphate of adenosine triphosphate to phosphatidylinositol. The kinase reaction is performed in a white 96 well microtitre plate as a Scintillation Proximity Assay. Each well contains 10 μl test compound in 5% dimethylsulphoxide and 20 μl assay mix (40 mM Tris, 200 mM NaCl, 2 mM ethyleneglycol-aminoethyl-tetraacetic acid (EGTA), 15 μg/ml phosphatidylinositol, 12.5 μM adenosine triphosphate (ATP), 25 mM MgCl2, 0.1 μCi [^33P]ATP). The reaction is started by the addition of 20 μl of enzyme mix (40 mM Tris, 200 mM NaCl, 2 mM EGTA containing recombinant GST-p110γ). […]
# T1 sequence (P48736 38-1102): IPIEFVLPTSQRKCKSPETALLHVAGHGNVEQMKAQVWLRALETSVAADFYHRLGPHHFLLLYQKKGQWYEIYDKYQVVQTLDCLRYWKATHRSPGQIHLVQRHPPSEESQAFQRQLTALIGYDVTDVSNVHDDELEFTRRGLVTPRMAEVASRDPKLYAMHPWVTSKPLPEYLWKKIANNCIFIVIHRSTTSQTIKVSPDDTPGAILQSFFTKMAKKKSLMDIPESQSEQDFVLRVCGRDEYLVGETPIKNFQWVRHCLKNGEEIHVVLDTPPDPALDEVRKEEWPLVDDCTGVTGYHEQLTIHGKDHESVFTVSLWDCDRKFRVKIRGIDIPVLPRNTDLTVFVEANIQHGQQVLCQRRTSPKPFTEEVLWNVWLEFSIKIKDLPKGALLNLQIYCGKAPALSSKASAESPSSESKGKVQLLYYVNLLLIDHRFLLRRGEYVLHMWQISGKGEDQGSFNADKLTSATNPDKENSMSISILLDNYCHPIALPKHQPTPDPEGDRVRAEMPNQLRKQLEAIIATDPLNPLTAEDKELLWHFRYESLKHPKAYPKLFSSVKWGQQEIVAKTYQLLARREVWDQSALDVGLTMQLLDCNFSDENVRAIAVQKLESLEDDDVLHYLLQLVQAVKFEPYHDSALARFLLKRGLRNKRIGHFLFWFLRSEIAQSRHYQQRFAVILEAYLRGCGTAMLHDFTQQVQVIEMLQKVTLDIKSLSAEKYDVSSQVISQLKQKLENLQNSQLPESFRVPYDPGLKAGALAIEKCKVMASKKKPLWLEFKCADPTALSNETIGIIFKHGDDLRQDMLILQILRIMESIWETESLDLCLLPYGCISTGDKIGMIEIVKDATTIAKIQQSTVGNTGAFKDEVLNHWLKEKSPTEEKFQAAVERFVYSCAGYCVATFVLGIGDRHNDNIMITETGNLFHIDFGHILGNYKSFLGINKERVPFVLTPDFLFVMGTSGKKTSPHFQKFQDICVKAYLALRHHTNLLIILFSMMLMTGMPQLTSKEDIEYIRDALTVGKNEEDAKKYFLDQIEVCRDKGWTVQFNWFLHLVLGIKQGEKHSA
row,Compound,IC50
1,"2-{3-[5-(2-methanesulfinyl-6-methyl-pyrimidin-4-yl)-4-methyl-thiazol-2-yl]-ureido}-N,N-dimethyl-acetamide [Example 67]",16 nM
2,"Cc1nc(Nc2cnccn2)sc1-c1ccncc1 [Example 1, (4-Methyl-5-pyridin-4-yl-thiazol-2-yl)-pyrazin-2-yl-amine]",75 nM
3,"Cc1nc(Nc2cnccn2)sc1-c1ccnc(-n2ccnc2)c1 [Example 6, [5-(2-Imidazol-1-yl-pyridin-4-yl)-4-methyl-thiazol-2-yl]-pyrazin-2-yl-amine]",165 nM
4,"Cc1nc(Nc2cc[nH]n2)sc1-c1ccnc(N2CCOCC2)c1 [Example 11, [4-Methyl-5-(2-morpholin-4-yl-pyridin-4-yl)-thiazol-2-yl]-(1H-pyrazol-3-yl)-amine]",93 nM
5,"CCOC(=O)CCNC(=O)Nc1nc(C)c(-c2ccncc2)s1 [Example 17, 3-[3-(4-Methyl-5-pyridin-4-yl-thiazol-2-yl)-ureido]-propionic acid ethyl ester]",106 nM
6,"Cc1nc(NC(=O)NCc2cccn2C)sc1-c1ccncc1 [Example 22, 1-(4-methyl-5-pyridin-4-yl-thiazol-2-yl)-3-(1-methyl-1H-pyrrol-2-ylmethyl)-urea]",50 nM
7,"CC(=O)Nc1nc(C)c(-c2ccnc(C3CC3)n2)s1 [Example 27, N-[5-(2-Cyclopropyl-pyrimidin-4-yl)-4-methyl-thiazol-2-yl]-acetamide]",17 nM
8,"CCc1cnc(CCNC(=O)Nc2nc(C)c(-c3ccnc(Cl)c3)s2)o1 [Example 33, 1-[5-(2-chloro-pyridin-4-yl)-4-methyl-thiazol-2-yl]-3-[2-(5-ethyl-oxazol-2-yl)-ethyl]-urea]",73 nM
9,"CCc1cnc(CCNC(=O)Nc2nc(C)c(-c3cc(C)nc(OC)n3)s2)o1 [Example 56, 1-[2-(5-Ethyl-oxazol-2-yl)-ethyl]-3-[5-(2-methoxy-6-methyl-pyrimidin-4-yl)-4-methyl-thiazol-2-yl]-urea]",127 nM
10,"Cc1nc(NC(=O)NCCC(=O)OC(C)(C)C)sc1-c1ccnc(C2CC2)n1 [Example 82, 3-{3-[5-(2-cyclopropyl-pyrimidin-4-yl)-4-methyl-thiazol-2-yl]-ureido}-propionic acid tert-butyl ester]",164 nM
11,"Cc1nc(N)sc1-c1ccnc(C(C)(C)C)n1 [Example 91, 5-(2-tert-Butyl-pyrimidin-4-yl)-4-methyl-thiazol-2-ylamine]",25 nM
12,"COCCNC(=O)Nc1nc(C)c(-c2ccnc(C(C)(C)C)n2)s1 [Example 108, 1-[5-(2-tert-butyl-pyrimidin-4-yl)-4-methyl-thiazol-2-yl]-3-(2-methoxy-ethyl)-urea]",5 nM
13,"CCOCCNC(=O)Nc1nc(C)c(-c2ccnc(C(C)(C)C)n2)s1 [Example 120, 1-[5-(2-tert-butyl-pyrimidin-4-yl)-4-methyl-thiazol-2-yl]-3-(2-ethoxy-ethyl)-urea]",8 nM
